# Source: ChEMBL document CHEMBL2010711, “Synthesis and comparative evaluation of 4-oxa- and 4-aza-podophyllotoxins as antiproliferative microtubule destabilizing agents” (Bioorg Med Chem Lett, 2012)
# Columns and labels:
# Type in all cases: functional
# K562 = experiment: Cytotoxicity against human K562 cells after 48 hrs by trypan blue dye exclusion assay; conditions: K562, 48 h
# HT-29 = experiment: Cytotoxicity against human HT-29 cells after 48 hrs by trypan blue dye exclusion assay; conditions: HT-29, 48 h
# UACC-257 = experiment: Cytotoxicity against human UACC257 cells after 48 hrs by trypan blue dye exclusion assay; conditions: UACC-257, 48 h
# UO-31 = experiment: Cytotoxicity against human UO31 cells after 48 hrs by trypan blue dye exclusion assay; conditions: UO-31, 48 h
# SK-MEL-2 = experiment: Cytotoxicity against human SK-MEL-2 cells after 48 hrs by trypan blue dye exclusion assay; conditions: SK-MEL-2, 48 h
# MDA-MB-231 = experiment: Cytotoxicity against human MDA-MB-231 cells after 48 hrs by trypan blue dye exclusion assay; conditions: MDA-MB-231, 48 h
# NCI-H522 = experiment: Cytotoxicity against human NCI-H522 cells after 48 hrs by trypan blue dye exclusion assay; conditions: NCI-H522, 48 h
# HCC 2998 = experiment: Cytotoxicity against human HCC2998 cells after 48 hrs by trypan blue dye exclusion assay; conditions: HCC 2998, 48 h
# RXF 393 = experiment: Cytotoxicity against human RXF393 cells after 48 hrs by trypan blue dye exclusion assay; conditions: RXF 393, 48 h
# SR = experiment: Cytotoxicity against human SR cells after 48 hrs by trypan blue dye exclusion assay
# SNB-19 = experiment: Cytotoxicity against human SNB19 cells after 48 hrs by trypan blue dye exclusion assay; conditions: SNB-19, 48 h
# SK-OV-3 = experiment: Cytotoxicity against human SKOV3 cells after 48 hrs by trypan blue dye exclusion assay; conditions: SK-OV-3, 48 h
# SF-268 = experiment: Cytotoxicity against human SF268 cells after 48 hrs by trypan blue dye exclusion assay; conditions: SF-268, 48 h
# A498 = experiment: Cytotoxicity against human A498 cells after 48 hrs by trypan blue dye exclusion assay; conditions: A498, 48 h
# TK-10 = experiment: Cytotoxicity against human TK10 cells after 48 hrs by trypan blue dye exclusion assay; conditions: TK-10, 48 h
# HOP-62 = experiment: Cytotoxicity against human HOP62 cells after 48 hrs by trypan blue dye exclusion assay; conditions: HOP-62, 48 h
# MDA-MB-468 = experiment: Cytotoxicity against human MDA-MB-468 cells after 48 hrs by trypan blue dye exclusion assay; conditions: MDA-MB-468, 48 h
# T47D = experiment: Cytotoxicity against human T47D cells after 48 hrs by trypan blue dye exclusion assay
# HCT-116 = experiment: Cytotoxicity against human HCT116 cells after 48 hrs by trypan blue dye exclusion assay; conditions: HCT-116, 48 h
# EKVX = experiment: Cytotoxicity against human EKVX cells after 48 hrs by trypan blue dye exclusion assay
# Malme-3M = experiment: Cytotoxicity against human MALME-3M cells after 48 hrs by trypan blue dye exclusion assay
# MDA-MB-435 = experiment: Cytotoxicity against human MDA-MB-435 cells after 48 hrs by trypan blue dye exclusion assay; conditions: MDA-MB-435, 48 h
# NCI-H322M = experiment: Cytotoxicity against human NCI-H322M cells after 48 hrs by trypan blue dye exclusion assay
# OVCAR-8 = experiment: Cytotoxicity against human OVCAR8 cells after 48 hrs by trypan blue dye exclusion assay; conditions: OVCAR-8, 48 h
# 786-0 = experiment: Cytotoxicity against human 786-0 cells after 48 hrs by trypan blue dye exclusion assay; conditions: 786-0, 48 h
# HOP-92 = experiment: Cytotoxicity against human HOP92 cells after 48 hrs by trypan blue dye exclusion assay; conditions: HOP-92, 48 h
# NCI-H460 = experiment: Cytotoxicity against human NCI-H460 cells after 48 hrs by trypan blue dye exclusion assay; conditions: NCI-H460, 48 h
# BT-549 = experiment: Cytotoxicity against human BT549 cells after 48 hrs by trypan blue dye exclusion assay; conditions: BT-549, 48 h
# CAKI-1 = experiment: Cytotoxicity against human CAKI-1 cells after 48 hrs by trypan blue dye exclusion assay; conditions: CAKI-1, 48 h
# ACHN = experiment: Cytotoxicity against human ACHN cells after 48 hrs by trypan blue dye exclusion assay
# HCT-15 = experiment: Cytotoxicity against human HCT15 cells after 48 hrs by trypan blue dye exclusion assay; conditions: HCT-15, 48 h
# RPMI-8226 = experiment: Cytotoxicity against human RPMI8226 cells after 48 hrs by trypan blue dye exclusion assay; conditions: RPMI-8226, 48 h
# DU-145 = experiment: Cytotoxicity against human DU145 cells after 48 hrs by trypan blue dye exclusion assay; conditions: DU-145, 48 h
# NCI/ADR-RES = experiment: Cytotoxicity against human NCI/ADR-RES cells after 48 hrs by trypan blue dye exclusion assay
# NCI-H23 = experiment: Cytotoxicity against human NCI-H23 cells after 48 hrs by trypan blue dye exclusion assay; conditions: NCI-H23, 48 h
# LOX IMVI = experiment: Cytotoxicity against human LOXIMVI cells after 48 hrs by trypan blue dye exclusion assay
# SF-295 = experiment: Cytotoxicity against human SF295 cells after 48 hrs by trypan blue dye exclusion assay; conditions: SF-295, 48 h
# OVCAR-3 = experiment: Cytotoxicity against human OVCAR3 cells after 48 hrs by trypan blue dye exclusion assay; conditions: OVCAR-3, 48 h
# NCI-H226 = experiment: Cytotoxicity against human NCI-H226 cells after 48 hrs by trypan blue dye exclusion assay; conditions: NCI-H226, 48 h
# U-251 = experiment: Cytotoxicity against human U251 cells after 48 hrs by trypan blue dye exclusion assay; conditions: U-251, 48 h
# SN12C = experiment: Cytotoxicity against human SN12C cells after 48 hrs by trypan blue dye exclusion assay
# HL-60(TB) = experiment: Cytotoxicity against human HL-60(TB) cells after 48 hrs by trypan blue dye exclusion assay; conditions: HL-60, 48 h
# MCF7 = experiment: Cytotoxicity against human MCF7 cells after 48 hrs by trypan blue dye exclusion assay; conditions: MCF7, 48 h
# OVCAR-4 = experiment: Cytotoxicity against human OVCAR4 cells after 48 hrs by trypan blue dye exclusion assay; conditions: OVCAR-4, 48 h
# SW-620 = experiment: Cytotoxicity against human SW620 cells after 48 hrs by trypan blue dye exclusion assay; conditions: SW-620, 48 h
# MOLT-4 = experiment: Cytotoxicity against human MOLT4 cells after 48 hrs by trypan blue dye exclusion assay; conditions: MOLT-4, 48 h
# KM12 = experiment: Cytotoxicity against human KM12 cells after 48 hrs by trypan blue dye exclusion assay; conditions: KM12, 48 h
# [1] = Cytotoxicity against human Hs 578T cells after 48 hrs by trypan blue dye exclusion assay
# UACC-62 = experiment: Cytotoxicity against human UACC62 cells after 48 hrs by trypan blue dye exclusion assay; conditions: UACC-62, 48 h
# COLO 205 = experiment: Cytotoxicity against human COLO205 cells after 48 hrs by trypan blue dye exclusion assay; conditions: COLO 205, 48 h
# IGROV-1 = experiment: Cytotoxicity against human IGROV1 cells after 48 hrs by trypan blue dye exclusion assay; conditions: IGROV-1, 48 h
# SK-MEL-5 = experiment: Cytotoxicity against human SK-MEL-5 cells after 48 hrs by trypan blue dye exclusion assay; conditions: SK-MEL-5, 48 h
# CCRF-CEM = experiment: Cytotoxicity against human CCRF-CEM cells after 48 hrs by trypan blue dye exclusion assay
# A549 = experiment: Cytotoxicity against human A549 cells after 48 hrs by trypan blue dye exclusion assay; conditions: A549, 48 h
# PC-3 = experiment: Cytotoxicity against human PC3 cells after 48 hrs by trypan blue dye exclusion assay; conditions: PC-3, 48 h
# SF-539 = experiment: Cytotoxicity against human SF539 cells after 48 hrs by trypan blue dye exclusion assay; conditions: SF-539, 48 h
# SNB-75 = experiment: Cytotoxicity against human SNB75 cells after 48 hrs by trypan blue dye exclusion assay; conditions: SNB-75, 48 h
# SK-MEL-28 = experiment: Cytotoxicity against human SK-MEL-28 cells after 48 hrs by trypan blue dye exclusion assay; conditions: SK-MEL-28, 48 h
# M14 = experiment: Cytotoxicity against human M14 cells after 48 hrs by trypan blue dye exclusion assay; conditions: M14, 48 h
compound,measurement,setting,value
COc1cc([C@@H]2c3cc4c(cc3[C@H](O)[C@H]3COC(=O)[C@H]23)OCO4)cc(OC)c1OC [PODOFILOX],GI50,K562,215 nM
same,GI50,HT-29,10 nM
same,GI50,UACC-257,10 nM
same,GI50,UO-31,16.6 nM
same,GI50,SK-MEL-2,14.9 nM
same,GI50,MDA-MB-231,10 nM
same,GI50,NCI-H522,10 nM
same,GI50,HCC 2998,12.3 nM
same,GI50,RXF 393,10 nM
same,GI50,SR,10 nM
same,GI50,SNB-19,10 nM
same,GI50,SK-OV-3,10 nM
same,GI50,SF-268,10 nM
same,GI50,A498,10 nM
same,GI50,TK-10,30.5 nM
same,GI50,HOP-62,21.1 nM
same,GI50,MDA-MB-468,10 nM
same,GI50,T47D,84500 nM
same,GI50,HCT-116,10 nM
same,GI50,EKVX,10 nM
same,GI50,Malme-3M,47300 nM
same,GI50,MDA-MB-435,10 nM
same,GI50,NCI-H322M,10 nM
same,GI50,OVCAR-8,10 nM
same,GI50,786-0,16.9 nM
same,GI50,HOP-92,34.1 nM
same,GI50,NCI-H460,10.6 nM
same,GI50,BT-549,10 nM
same,GI50,CAKI-1,89.7 nM
same,GI50,ACHN,10 nM
same,GI50,HCT-15,13.5 nM
same,GI50,RPMI-8226,10 nM
same,GI50,DU-145,10 nM
same,GI50,NCI/ADR-RES,10 nM
same,GI50,NCI-H23,10 nM
same,GI50,LOX IMVI,10 nM
same,GI50,SF-295,10 nM
same,GI50,OVCAR-3,11.3 nM
same,GI50,NCI-H226,10 nM
same,GI50,U-251,10.7 nM
same,GI50,SN12C,17.1 nM
same,GI50,HL-60(TB),10 nM
same,GI50,MCF7,10 nM
same,GI50,OVCAR-4,17.5 nM
same,GI50,SW-620,10 nM
same,GI50,MOLT-4,10 nM
same,GI50,KM12,10 nM
same,GI50,[1],10 nM
same,GI50,UACC-62,10 nM
same,GI50,COLO 205,10 nM
same,GI50,IGROV-1,13.2 nM
same,GI50,SK-MEL-5,10 nM
same,GI50,CCRF-CEM,10 nM
same,GI50,A549,13.8 nM
same,GI50,PC-3,10 nM
same,GI50,SF-539,10 nM
same,GI50,SNB-75,659 nM
same,GI50,SK-MEL-28,10 nM
same,GI50,M14,13.1 nM
